Results reported in US7875600B2, “Pyrimidine compounds as purine receptor antagonist” (Vernalis (R&D) Limited, priority 2004, dated 2011).

Key:
cataleptic responses = details: cited from earlier work
[1] = biological target: human adenosine A2A receptors (Homo sapiens, UniProt P29274); assay: Binding affinities at hA2A receptors, displacement of [3H]-CGS 21680; details: human adenosine A2A receptor, [3H]-CGS 21680 displacement
From the text: Adenosine Receptor Binding Binding Affinities at hA2A Receptors
The compounds were examined in an assay measuring in vitro binding to human adenosine A2A receptors by determining the displacement of the adenosine A2A receptor selective radioligand [^3H]-CGS 21680 using standard techniques.

[2] = test system: haloperidol-induced deficits in locomotor activity in mice; assay: Haloperidol-induced hypolocomotion model; assay type: in vivo; details: oral, dose of 30 mg/kg
From the text: Haloperidol-Induced Hypolocomotion Model
This approach is also considered a valid method for screening drugs with potential antiparkinsonian effects. Thus, the ability of novel adenosine antagonists to block haloperidol-induced deficits in locomotor activity in mice can be used to assess both in vivo and potential antiparkinsonian efficacy.
Female TO mice (25-30 g) obtained from Harlan, UK, are used for all experiments. Animals are housed in groups of 8 [cage size—40 (width)×40 (length)×20 (height) cm] under 12 h light/dark cycle (lights on 08:00 hr), in a temperature (20±2° C.) and humidity (55±15%) controlled environment. Animals have free access to food and water, and are allowed at least 3 days to acclimatize after delivery before experimental use.
Liquid injectable haloperidol (1 ml Serenance ampoules from Baker Norton, Harlow, Essex, each containing haloperidol BP 5 mg) are diluted to a final concentration of 0.02 mg/ml using saline. Test compounds are typically prepared as aqueous suspensions in 1% methyl cellulose. All compounds are administered orally in a volume of 10 ml/kg.
1.5 h before testing, mice are administered 0.2 mg/kg haloperidol, a dose that reduces baseline locomotor activity by at least 50%. […] Horizontal locomotor activity is determined by placing the cages within a frame containing a 4×7 array of photocells linked to a computer, which tabulates beam breaks. […]

Parkinsonian patients = details: 15 Parkinsonian patients, up to 12 weeks, 150 mg/day oral; cited from earlier work

Chain of human adenosine A2A receptors (P29274 whole entry): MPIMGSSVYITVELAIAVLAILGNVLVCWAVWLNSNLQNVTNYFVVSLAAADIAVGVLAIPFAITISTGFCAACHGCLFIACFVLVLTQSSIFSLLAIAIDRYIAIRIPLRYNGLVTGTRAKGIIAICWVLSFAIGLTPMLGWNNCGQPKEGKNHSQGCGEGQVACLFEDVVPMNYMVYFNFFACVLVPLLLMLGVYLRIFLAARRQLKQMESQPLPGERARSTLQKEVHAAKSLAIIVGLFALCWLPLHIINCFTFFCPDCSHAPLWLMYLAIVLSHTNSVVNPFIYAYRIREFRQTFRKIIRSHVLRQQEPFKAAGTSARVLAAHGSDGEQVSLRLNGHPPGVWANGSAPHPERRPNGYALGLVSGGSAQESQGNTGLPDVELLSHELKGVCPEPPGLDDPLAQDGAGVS

CCCn1c(=O)c2c(nc(/C=C/c3ccc(OC)c(OC)c3)n2C)n(CCC)c1=O [KF 17837, (E)-8-(3,4-dimethoxystyryl)-1,3-dipropyl-7-methylxanthine]
anticataleptic effects of a subthreshold dose of L-DOPA plus benserazide (cataleptic responses; in vivo): potentiated
catalepsy induced by haloperidol and reserpine (cataleptic responses; in vivo): reduced
cataleptic responses induced by intracerebroventricular CGS 21680 (cataleptic responses; oral administration): significantly ameliorated

Nc1nc(C(=O)NCc2ccccc2F)cc(-c2ccco2)n1 [Example 1, 2-Amino-N-(2-fluorobenzyl)-6-(2-furyl)pyrimidine-4-carboxamide]
Ki [1]: < 0.05 µM
activity in haloperidol-induced hypolocomotion model [2]: orally active

Cn1c(=O)c2[nH]cnc2n(C)c1=O [theophylline, 1,3-dimethylxanthine]
mean objective disability scores (Parkinsonian patients): significant improvements
